# From patent publication US20110200686A1, “COMPOSITIONS OF MODULATORS OF THE WNT/B-CATENIN PATHWAY AND AN N-CINNAMYL-N'BENZHYDRYL PIPERAZINE AND THEIR USE IN TREATING NEOPLASTIC CONDITIONS INCLUDING MALIGNANT MELANOMA” (UNIVERSITY OG WASHINGTON, priority 2008, published 2011)
# Legend:
# GSK-3 = details: cited from earlier work; for selectivity for GSK-3: literature values
# B16 melanoma cells = test: Cell proliferation assay, B16 murine melanoma cells; assay type: cell-based; details: NaCl 20 mM, negative control, FIG. 3B
# Description: For cell counts by hematocytometer, cells were plated at a uniform density (usually between 10,000 to 25,000 cells per well) in a 12 or 24 well tissue culture plate in the appropriate media supplemented with 2% FBS. Cells were then incubated at 37° C. at 5% CO2 for three to seven days based on individual cell doubling time. At the end of the timecourse, cells were trypsinized, resuspended in the appropriate media, and counted using a standard hematocytometer. Dead cells were identified by 0.4% Trypan Blue stain. Cell proliferation experiments were performed with a minimum of six biologic replicates. […] For relative cell proliferation assays of B16:GFP cells incubated with lithium chloride or sodium chloride, cell proliferation was measured by relative firefly luciferase units (Promega; Madison, Wis.).
# Wnt/β-catenin pathway [1] = details: positive control, known from Zhang et al. 2007; cited from earlier work
# human melanoma cells = test: Proliferation of human melanoma cells measured by Renilla luciferase activity; assay type: cell-based; details: flunarizine 1 μM alone, FIG. 5
# Description: (§1) Wnt3a conditioned media was collected from sub-confluent melanoma cell lines, and this media was tested for its ability to activate Wnt/β-catenin signaling in UACC 1273 melanoma cells that were stably transduced with a Wnt/β-catenin-responsive firefly luciferase reporter and a constitutive Renilla luciferase gene used for normalization (Cignal TCF/LEF transcriptional reporter construct; SABiosciences, Frederick, Md.). Conditioned media was spun down to clear cell debris and then incubated with reporter cells overnight. Activation of the Wnt/β-catenin reporter was measured using a DLR assay kit (Promega; Madison, Wis.).
# (§2) Flunarizine and QS11 were solubilized in dimethyl-sulfoxide (DMSO) vehicle, which was used as a control (vol/vol) for the described experiments. Drug incubations were 24-48 hours in duration.
# Wnt/β-catenin pathway [2] = test: Wnt/β-catenin-responsive (TCF/LEF) luciferase reporter assay in melanoma cells; assay type: cell-based, human
# Description: as §1, §2
# A TCF/LEF transcriptional reporter gene cell line used to monitor the activation of the Wnt signal transduction pathway was utilized in a high throughput screen of a library of chemical compounds to identify compounds that synergize with lithium in activating the Wnt/β-catenin pathway.
compound,measurement,setting,value
O=[N+]([O-])c1ccc(NCCNc2ncc(-c3ncc[nH]3)c(-c3ccc(Cl)cc3Cl)n2)nc1 [CHIR-837],selectivity for GSK-3,GSK-3,"> 5,000 fold"
"[Cl-].[Na+] [NaCl, Sodium chloride]",effect on B16 melanoma cell growth,B16 melanoma cells,no effect on cell growth
OC[C@H](Cc1ccccc1)Nc1nc(Oc2ccc3c(c2)CCC3)nc2c1ncn2Cc1ccc(-c2ccccc2)cc1 [QS11],synergy with Wnt-3a in activating the Wnt pathway,Wnt/β-catenin pathway [1],act synergistically with Wnt-3a to activate the Wnt pathway
"Fc1ccc(C(c2ccc(F)cc2)N2CCN(CC=Cc3ccccc3)CC2)cc1 [flunarizine, 1-[bis(4-fluorophenyl)methyl]-4-cinnamyl-piperazine]",proliferation of human melanoma cells (Renilla luciferase activity),human melanoma cells,inhibited
same,activation of Wnt-responsive reporter together with Wnt-3a conditioned media,"Wnt/β-catenin pathway [2]; flunarizine 1 μM, human melanoma cells, FIG. 6",synergizes with Wnt-3a conditioned media to activate a Wnt-responsive reporter
same,enhancement of lithium-induced activation of the TCF/LEF reporter gene,"Wnt/β-catenin pathway [2]; flunarizine with lithium, FIG. 4",~100 fold
